Source: patent US8138304B2, “Neural regeneration peptides and formulations thereof” (Neuren Pharmaceuticals Limited, priority 2005, dated 2012)
Where no end group is shown, it is not given here.

Key:
cerebellar microexplants = experiment: Cerebellar microexplant survival assay (3-NP/glutamate injury); assay type: cell-based, Wistar rat; settings: in this particular assay; concentration not given
Description: (§1) Laminated cerebellar cortices of the two hemispheres were explanted from a P3, P4, P7 or P8 Wistar rat, cut into small pieces in GBSS with 0.65% D(+)glucose solution, and triturated by a 0.4 mm gauge needle and subsequently pressed through a 125 μm pore size sieve. The obtained microexplants were centrifuged (60×g) 2 times for a medium exchange into serum-free BSA-supplemented START V-medium (Biochrom). Finally, the microexplants were reconstituted in 500 μl STARTV-medium. For culturing, 38 μl of the cell suspension was incubated for 1 hour on a poly-D-lysine-coated cover slip in a 35 mm Petri dish under an atmosphere comprising 5% CO2 in air and 100% humidity at 34° C. Subsequently, the injuring toxins (as described below), NRPs and 1 ml of STARTV-medium were added, and the cultures were evaluated after 2-3 days of culture.
Toxicological and drug administration experiments were designed such that 1/100 parts of toxin and neuroprotective drug were administered simultaneously to the freshly prepared cerebellar microexplants. […]
For statistical analysis of survival, four fields (each field having an area of 0.65 mm^2) of each fixed cerebellar culture with the highest cell densities were chosen, and cells displaying neurite outgrowth were counted (survival assay).

[1] = test system: experimental autoimmune encephalomyelitis (EAE) induced by MOG; experiment: EAE model of multiple sclerosis, prophylactic treatment; assay type: in vivo, mice, strain C57Bl/6J; settings: for incidence of disease / mortality / average clinical score: 14 days from day 5
[2] = test system: experimental autoimmune encephalomyelitis (EAE) induced by MOG; experiment: EAE model of multiple sclerosis, therapeutic treatment; assay type: in vivo, mice, strain C57Bl/6J; settings: score 0-6
[3] = test system: peripheral neuropathy induced by pyridoxine; experiment: Pyridoxine-induced peripheral neuropathy: motor impairment score; assay type: in vivo, Sprague Dawley rats
Description: (§2) Adult male Sprague Dawley P50 rats were divided into the vehicle (n=9) and NRP-treated (n=10) groups. The rats were killed with an overdose of sodium pentobarbiturate on the 24 day from the first administration of pyridoxine.
(§3) From day 1, all rats were injected intraperitoneally (IP), twice daily, with 350 mg/kg pyridoxine for 8 consecutive days. Pyridoxine (Sigma) solution for injections was made using the following proportions: 95 mg of pyridoxine and 41 mg sodium bicarbonate in 1 ml of water.
On days 1 to 10 the vehicle group (n=10) received one daily IP-injection of 24 mM sucrose and the rats in the NRP-treated group (n=10) received 4 μg/kg of NRP-5 segment GG analogue D4A (GRRAAPGRAGG-NH2; SEQ ID NO:2) diluted in 24 mM sucrose. Lyophilised NRP was stored in the presence of sucrose or alternatively in trehalose at room temperature. […]
Overall motor impairment was analysed by assessing the gait of each rat: 1) on a flat surface and 2) its ability to walk across a wooden beam. […]
If the animal walked with no difficulty whatsoever, it was scored as a “0.” If there appeared to be problems in its gait, it was placed on a raised wooden beam. […]

[4] = test system: peripheral neuropathy induced by pyridoxine; experiment: Pyridoxine-induced peripheral neuropathy: precision beam walk test; assay type: in vivo, Sprague Dawley rats; settings: for beam walk score: 7-step walk total score
Description: as §2, §3
(§4) On days 1 to 10 the vehicle group (n=10) received one daily IP-injection of 24 mM sucrose and the rats in the NRP-treated group (n=10) received 4 μg/kg of NRP-5 segment GG analogue D4A (GRRAAPGRAGG-NH2; SEQ ID NO:2) diluted in 24 mM sucrose. Lyophilised NRP was stored in the presence of sucrose or alternatively in trehalose at room temperature. For every intraperitoneal (i.p.) injection, NRP-5 segment GG analogue D4A was reconstituted to 100 μM peptide concentration containing 0.5M sucrose/trehalose, further diluted with PBS to the actual working solution of 5 μg/ml NRP-5 segment GG analogue D4A (containing 24 mM sucrose). A rat with a body weight of 250 g was injected with 200 μl of the working solution.
The precision beam walk test was used to assess the animals' precise coordinated movement on days 13, 17 and 24. Briefly, animals were habituated once daily for 7 days before start of pyridoxine treatment on a 1.5 m long beam (with two longitudinal stripes indicating the median of the beam). On day 0 (one day before pyridoxine/NRP treatment) a baseline of motor behaviour on the beam was videotaped. […] All scores were added for the 7-step walk to receive a total score for one tested animal at a given time point. If the tested rat could only stand on the beam but was unable to not walk it was given the score of 30, and if it was unable to stand on the beam, it was scored as 32.

[5] = test system: peripheral neuropathy induced by pyridoxine; experiment: Pyridoxine-induced peripheral neuropathy: hind limb adduction test; assay type: in vivo, Sprague Dawley rats; settings: end of the study
Description: as §2, §3
as §4, with “A rat with a body weight of 250 g was injected with 200 μl of the working solution.” left out
Overall motor movement impairment was analysed by assessing the ability of each rat to adduct (i.e. keep its limbs close to the body) its hind limbs. […] These were scored as “0”. Rats that drew their hind limbs back after a slight delay were scored as “1”. […]

cerebellar cells = experiment: Cerebellar microexplant proliferation assay (BrdU); assay type: cell-based, Wistar rat; settings: p<0.01; SEQ ID NO: 1 at 1 pM, SEQ ID NO: 2 at 100 pM
Description: as §1
Toxicological and drug administration experiments were designed such that 1/100 parts of toxin and neuroprotective drug were administered simultaneously to the freshly prepared cerebellar microexplants. Glutamate was prepared as a 50 mM stock solution in MilliQ water while 50 mM 3-nitropropionic acid was pH-adjusted (pH 6.8-7.2) in MilliQ water. The concentrations of the oxidative stress inducing toxin, 3-nitropropionic acid (3-NP), and the excitotoxin, glutamate, in the assay were 0.5 mM each. Lyophilized peptides were reconstituted in PBS or 100 μg/ml human transferrin as a 10 μM stock solution. Subsequently, serial dilutions were made. Cerebellar microexplants were cultivated for 48-72 hours at 34° C., 5% CO2 in air and 100% humidity before they were fixed by increasing amounts of paraformaldehyde (0.4%, 1.2%, 3% and 4%—each treatment 2-3 min).
Using the toxins described above, cerebellar explants were exposed for 24 hours, at the beginning of culturing to dilutions of NRP (survival assay) or NRP and 0.1 μM BrdU (proliferation assay). Subsequently, 80% of the medium was changed without addition of new toxins and NRPs. […]
For statistical analysis of proliferation BrdU-positive nuclei were counted. Statistical significance was measured by Student's t-test.

[6] = Pyridoxine-induced peripheral neuropathy: weight loss; assay type: in vivo, Sprague Dawley rats; settings: 4 μg/kg IP daily days 1 to 10
Description: as §2, §3, §4
Animals are weighed daily during the experimental timeframe of 24 days. According to the study protocol, animals showing weight loss of more than 15% body weight were immediately killed. One of the control animals was sacrificed on day 4 of the pyridoxine treatment (control n=9).

[7] = test system: primary human trophoblasts; experiment: Trophoblast proliferation assay (BrdU incorporation); assay type: cell-based; settings: EGF 0.8×10^−9 M; 24 hrs; BrdU
Description: Cell proliferation was determined by BrdU incorporation to examine the effects of NRP-5RG D6A on the proliferation of trophoblasts. EGF (0.8×10^−9 M) was used as a positive control, since studies have previously shown it plays a role in enhancing trophoblast proliferation (Maruo et al., 1992).
Initially cells were treated with NRP-5RG D6A (SEQ ID NO: 1), EGF and BrdU (0.05 μM) for 72 hrs. After the first 24 hrs, an 80% media change was carried out since BrdU is toxic over long incubation periods. Following 72 hrs of incubation, the reaction was stopped by fixation in 4% PFA. However, with this experimental design, most trophoblasts would form syncytia by the end of the 72 hrs, hindering accurate examination of the proliferative effect of NRP-5RG D6A on trophoblasts. […] This allowed analysis of proliferation of mononuclear trophoblasts.
Cell proliferation was evaluated over 24 hrs after seeding 1.3×10^5 cells/cm^2 in culture media (1% serum) treated with 0.05 μM BrdU, NRP-5RG D6A and EGF (FIG. 13).

JAr cells = experiment: TNF-alpha-induced cytotoxicity in immortalized trophoblast cell line; assay type: cell-based, human; settings: EGF 5 ng/ml
Description: Choriocarcinoma cells (Jeg-3, BeWo and Jar; ATCC) were cultured under similar conditions in DMEM/F-12 cell culture medium in 75 cm2 flasks with filter tops (Raylab). Cells were allowed to adhere and grow in an incubator equilibrated in 95%/5% air/CO2 to approximately 70% confluence, before being split every 2 to 3 days by addition of 2 ml of 1× concentrated trypsin-EDTA. After a centrifugation step for 5 min at 1100 rpm, cells were resuspended in 15 ml of fresh DMEM/F-12 in sterile tissue flasks and placed back in the incubator.
In this study, we plated 50,000 JAr cells per well. JAr cells are an immortalized line of cells derived from a human choriocarcinoma cells. Wells were pre-incubated with NRP-5RG D6A (SEQ ID NO: 1) at the concentrations indicated in FIG. 12, or epidermal growth factor (EGF; 5 ng/ml) for 2 hours. Subsequently, cells were exposed to the cultures for 48 hours to TNF-alpha (5 ng/ml) and interferon-gamma (5 ng/ml) to induce stress.

[8] = 0.2 μg peptide/day (8.33 μg/kg) i.p.

Substance: IGF-1: Neuroprotectant named as comparator in the cerebellar microexplant assay [reference compound]
- rescue values, protection (cerebellar microexplants): approximately 20%

Substance: GTPGRAEAGGQVSPCLAASCSQAYG (listed as Homo sapiens) [SEQ ID NO: 4, 25-mer NRP-4 GG]
- incidence of disease ([1]; 1 ug peptide/day i.p.): 8 out of 10
- mortality ([1]; 1 ug peptide/day i.p.): 0
- average clinical score ([1]; day 27, 1 ug peptide/day i.p.): 1.0
- disease profile compared to saline control ([1]; from 12 days onwards until day 27, 1 ug peptide/day i.p.): significant attenuation of the disease profile

Substance: SEPEARRAPGRKGGVVCASLAADW (listed as Mus musculus) [SEQ ID NO: 5, 24-mer NRP-7 SW]
- average clinical score [1, 8]: less than 0.5
- incidence of disease [1, 8]: 7 out of 9
- mortality [1, 8]: No animals died
- clinical score compared to saline control ([1]; from day 12 onwards, 0.2 μg peptide/day i.p.): significant attenuation in clinical score

Substance: REGRRDAPGRAGG (listed as Homo sapiens) [SEQ ID NO: 3, 13-mer NRP-5 segment RG]
- mean clinical score after treatment ([2]; 0.1 μg peptide/animal (4.16 μg/kg) i.p. daily for 14 days from peak of disease): 1.16
- mean clinical score before treatment ([2]; peak of the disease (day 17 after MOG-immunization)): 2.61

Substance: GRRAAPGRAGG-NH2 (listed as Homo sapiens) [SEQ ID NO: 2, 11-mer analogue of NRP-5]
- motor impairment score ([3]; day 13 (peak of disease), score 0-3, 4 μg/kg IP daily days 1 to 10): 0.60+0.52
- motor impairment outcome ([3]; day 24): recovered
- rats that performed the 7-step walk ([4]; day 13): 6 out of 10
- beam walk score ([4]; day 13): 23.50 ± 2.46
- animals that could perform the walk ([4]; day 17): all but one
- beam walk score ([4]; day 17): 21.70 ± 1.43
- beam walk, difference between vehicle and NRP-treated group ([4]; day 24): no longer a significant difference
- animals with no sign of hind limb adduction after manual manipulation [5]: 9 out of 10
- hind limb adduction score ([5]; score 0-3, 4 μg/kg IP daily days 1 to 10): 0.10+0.31
- proliferation compared against injured cells without NRP (cerebellar cells): highly proliferation-inducing
- initial weight loss [6]: 3.7%
- body weight versus vehicle-treated group ([6]; day 8 until day 21): significantly higher
- body weight at the peak of weight loss ([6]; day 10): 96.3+1.2 % of day 1 weight

Substance: EGF: epidermal growth factor; proliferation-inducing peptide used as internal/positive control [reference compound]
- increase in trophoblast proliferation compared to control [7]: 116.7±44%
- trophoblast proliferation in the absence of TNF-alpha injury (JAr cells): stimulated trophoblast proliferation
- rescue of JAr cells from TNF-alpha-induced cytotoxicity (JAr cells; 2 hours pre-incubation): weak effect
